Starred links: 1 amine or outer side, 2 acyl side, 3 side chain; linkers in the order of their positions; H or OH if unused. Non-standard residues stand in square brackets, D forms with d. Residues, ends and D or L forms follow the SMILES beside them. ξ: configuration not given here. *: point of attachment. X1 = COc1cccc2c1C(=O)c1c(O)c3c(c(O)c1C2=O)C[C@@](O)(C(=O)COC(=O)CCCN1C(=O)CC(*)C1=O)C[C@@H]3O[C@H]1C[C@H](N)[C@H](O)[C@H](C)O1; X4 = COc1cccc2c1C(=O)c1c(O)c3c(c(O)c1C2=O)C[C@@](O)(C(=O)CO)C[C@@H]3O[C@H]1C[C@H](NC(=O)CCCN2C(=O)CC(*)C2=O)[C@H](O)[C@H](C)O1; X2 = COc1cccc2c1C(=O)c1c(O)c3c(c(O)c1C2=O)C[C@@](O)(C(=O)C*)CC3O[C@H]1C[C@H](N)[C@H](O)[C@H](C)O1; X3 = COc1cccc2c1Cc1cc3c(cc1C2)C[C@@](O)(C(=O)CSCN*)C[C@@H]3O[C@H]1C[C@H](N)[C@H](O)[C@H](C)O1; CO = O=C([*:1])[*:2]; ξC = NC(CS)C(=O)O
Tests used:
HCT-15 [1] = experiment: Cytotoxicity against HCT15 cell line by WST1 assay; format: functional, cell-based; settings: Homo sapiens
MES-SA/Dx5 [2] = experiment: Cytotoxicity against MES-SA/dx5 cell line by WST1 assay; format: functional, cell-based; settings: Homo sapiens
HCT-116 [3] = experiment: Cytotoxicity against doxorubicin-sensitive HCT116 cell line in presence of verapamil by WST1 assay; format: functional, cell-based; settings: Homo sapiens
HCT-15 [4] = experiment: Cytotoxicity against doxorubicin-resistant HCT15 cell line in presence of verapamil by WST1 assay; format: functional, cell-based; settings: Homo sapiens
NCI/ADR-RES [5] = experiment: Cytotoxicity against doxorubicin-resistant MCF7/Adr cell line in presence of verapamil by WST1 assay; format: functional, cell-based; settings: Homo sapiens
MES-SA/Dx5 [6] = experiment: Cytotoxicity against doxorubicin-resistant MES-SA/dx5 cell line in presence of verapamil by WST1 assay; format: functional, cell-based; settings: Homo sapiens
HCT-116 [7] = experiment: Cytotoxicity against doxorubicin-sensitive HCT116 cell line by WST1 assay; format: functional, cell-based; settings: Homo sapiens
MCF7 = experiment: Cytotoxicity against doxorubicin-sensitive MCF7/6 cell line by WST1 assay; format: functional, cell-based; settings: Homo sapiens
NCI/ADR-RES [8] = experiment: Cytotoxicity against doxorubicin-resistant MCF7/Adr cell line by WST1 assay; format: functional, cell-based; settings: Homo sapiens
HCT-116 [9] = experiment: Cytotoxicity against HCT116 cell line xenografted in NMRI nu/nu mouse at 15 umol/kg relative to control; format: functional, Homo sapiens
HCT-116 [10] = experiment: Cytotoxicity against HCT116 cell line xenografted in NMRI nu/nu mouse at 10 umol/kg relative to control; format: functional, Homo sapiens
MDA-MB-231 [11] = experiment: Cytotoxicity against MDA-MB-231 cell line xenografted in NMRI nu/nu mouse at 6 umol/kg relative to control; format: functional, Homo sapiens
MDA-MB-231 [12] = experiment: Cytotoxicity against MDA-MB-231 cell line xenografted in NMRI nu/nu mouse at 8 umol/kg relative to control; format: functional, Homo sapiens
MDA-MB-231 [13] = experiment: Cytotoxicity against MDA-MB-231 cell line xenografted in NMRI nu/nu mouse at 10 umol/kg relative to control; format: functional, Homo sapiens
HCT-116 [14] = experiment: Cytotoxicity against HCT116 cell line xenografted in NMRI nu/nu mouse at 6.5 umol/kg relative to control; format: functional, Homo sapiens

Compound	IC50 (HCT-116 [7]) [µM]	IC50 (MCF7) [µM]	IC50 (NCI/ADR-RES [8]) [µM]	Activity (HCT-116 [9]) [%]	also measured
COc1cccc2c1C(=O)c1c(O)c3c(c(O)c1C2=O)C[C@@](O)(C(=O)COC(=O)CCCN1C(=O)CC(SC[C@H](N)C(=O)N[C@H](C(=O)N[C@@H](CCCCN)C(=O)N[C@@H](CCCN=C(N)N)C(=O)NCC(=O)N[C@@H](CC(C)C)C(=O)N[C@@H](CCCCN)C(=O)N[C@@H](CC(C)C)C(=O)N[C@@H](CCCN=C(N)N)C(=O)N[C@@H](Cc2c[nH]cn2)C(=O)N[C@H](C(=O)N[C@@H](CCCN=C(N)N)C(=O)N2CCC[C@H]2C(=O)N[C@@H](CCCN=C(N)N)C(=O)N[C@H](C(=O)N[C@H](C(=O)N[C@@H](CCCN=C(N)N)C(=O)N[C@@H](CCSC)C(=O)N[C@@H](CC(=O)O)C(=O)N[C@H](C(=O)O)C(C)C)[C@@H](C)O)C(C)C)C(C)C)C(C)C)C1=O)C[C@@H]3O[C@H]1C[C@H](N)[C@H](O)[C@H](C)O1 (stereo partly specified) (H-C(X1)VKRGLKLRHVRPRVTRMDV-OH)	6	29	133		IC50 (HCT-15 [1]): 50 µM; IC50 (MES-SA/Dx5 [2]): 81 µM; IC50 (HCT-116 [3]): 4 µM; IC50 (HCT-15 [4]): 11 µM; IC50 (NCI/ADR-RES [5]): 52 µM; IC50 (MES-SA/Dx5 [6]): 22 µM
COc1cccc2c1C(=O)c1c(O)c3c(c(O)c1C2=O)C[C@@](O)(C(=O)COC(=O)CCCN1C(=O)CC(SCC(N)C(=O)NCC(=O)N[C@@H](CCCCN)C(=O)N[C@@H](CCCN=C(N)N)C(=O)N[C@@H](CCCCN)C(=O)N[C@@H](CCCCN)C(=O)N[C@@H](CCCCN)C(=O)NCC(=O)N[C@@H](CCCCN)C(=O)N[C@@H](CC(C)C)C(=O)NCC(=O)N[C@@H](CCCCN)C(=O)N[C@@H](CCCCN)C(=O)N[C@@H](CCCN=C(N)N)C(=O)N2CCC[C@H]2C(=O)N[C@@H](CCCN=C(N)N)C(=O)N[C@@H](CO)C(=O)N[C@@H](CCCN=C(N)N)C(=O)N[C@@H](CS)C(=O)O)C1=O)C[C@@H]3O[C@H]1C[C@H](N)[C@H](O)[C@H](C)O1.O=C(O)C(F)(F)F (stereo partly specified) (H-[ξC](X1)GKRKKKGKLGKKRPRSRC-OH)	5	10	> 1000	34.1	
COc1cccc2c1Cc1cc3c(cc1C2)C[C@@](O)(C(=O)CSCNC(=O)NCC(=O)N[C@@H](CCCCN)C(=O)N[C@@H](CCCN=C(N)N)C(=O)N[C@@H](CCCCN)C(=O)N[C@@H](CCCCN)C(=O)N[C@@H](CCCCN)C(=O)NCC(=O)N[C@@H](CCCCN)C(=O)N[C@@H](CC(C)C)C(=O)NCC(=O)N[C@@H](CCCCN)C(=O)N[C@@H](CCCCN)C(=O)N[C@@H](CCCN=C(N)N)C(=O)N1CCC[C@H]1C(=O)N[C@@H](CCCN=C(N)N)C(=O)N[C@@H](CO)C(=O)N[C@@H](CCCN=C(N)N)C(=O)N[C@@H](CS)C(=O)O)C[C@@H]3O[C@H]1C[C@H](N)[C@H](O)[C@H](C)O1.O=C(O)C(F)(F)F ({X3-CO}-GKRKKKGKLGKKRPRSRC-OH)	30	17	862		Activity (HCT-116 [10]): 86.2%
COc1cccc2c1C(=O)c1c(O)c3c(c(O)c1C2=O)C[C@@](O)(C(=O)CO)C[C@@H]3O[C@H]1C[C@H](NC(=O)CCCN2C(=O)CC(SC[C@H](N)C(=O)N[C@H](C(=O)N[C@@H](CCCCN)C(=O)N[C@@H](CCCN=C(N)N)C(=O)NCC(=O)N[C@@H](CC(C)C)C(=O)N[C@@H](CCCCN)C(=O)N[C@@H](CC(C)C)C(=O)N[C@@H](CCCN=C(N)N)C(=O)N[C@@H](Cc3c[nH]cn3)C(=O)N[C@H](C(=O)N[C@@H](CCCN=C(N)N)C(=O)N3CCC[C@H]3C(=O)N[C@@H](CCCN=C(N)N)C(=O)N[C@H](C(=O)N[C@H](C(=O)N[C@@H](CCCN=C(N)N)C(=O)N[C@@H](CCSC)C(=O)N[C@@H](CC(=O)O)C(=O)N[C@H](C(=O)O)C(C)C)[C@@H](C)O)C(C)C)C(C)C)C(C)C)C2=O)[C@H](O)[C@H](C)O1 (stereo partly specified) (H-C(X4)VKRGLKLRHVRPRVTRMDV-OH)		108	500		
COc1cccc2c1C(=O)c1c(O)c3c(c(O)c1C2=O)C[C@@](O)(C(=O)COC(=O)CCCN1C(=O)CC(SC[C@H](N)C(=O)N[C@H](C(=O)N[C@@H](CCCCN)C(=O)N[C@@H](CCCN=C(N)N)C(=O)NCC(=O)N[C@@H](CC(C)C)C(=O)N[C@@H](CCCCN)C(=O)N[C@@H](CC(C)C)C(=O)N[C@@H](CCCN=C(N)N)C(=O)N[C@@H](Cc2c[nH]cn2)C(=O)N[C@H](C(=O)N[C@@H](CCCN=C(N)N)C(=O)N2CCC[C@H]2C(=O)N[C@@H](CCCN=C(N)N)C(=O)N[C@H](C(=O)N[C@H](C(=O)N[C@@H](CCCN=C(N)N)C(=O)N[C@@H](CCSC)C(=O)N[C@@H](CC(=O)O)C(=O)N[C@H](C(=O)O)C(C)C)[C@@H](C)O)C(C)C)C(C)C)C(C)C)C1=O)C[C@@H]3O[C@H]1C[C@H](N)[C@H](O)[C@H](C)O1.O=C(O)C(F)(F)F (stereo partly specified) (H-C(X1)VKRGLKLRHVRPRVTRMDV-OH)				29.5	Activity (MDA-MB-231 [11]): 43.4%; Activity (MDA-MB-231 [12]): 27.6%; Activity (MDA-MB-231 [13]): 16.4%
COc1cccc2c1C(=O)c1c(O)c3c(c(O)c1C2=O)C[C@@](O)(C(=O)CO)C[C@@H]3O[C@H]1C[C@H](NC(=O)CCCN2C(=O)CC(SC[C@H](N)C(=O)N[C@H](C(=O)N[C@@H](CCCCN)C(=O)N[C@@H](CCCN=C(N)N)C(=O)NCC(=O)N[C@@H](CC(C)C)C(=O)N[C@@H](CCCCN)C(=O)N[C@@H](CC(C)C)C(=O)N[C@@H](CCCN=C(N)N)C(=O)N[C@@H](Cc3c[nH]cn3)C(=O)N[C@H](C(=O)N[C@@H](CCCN=C(N)N)C(=O)N3CCC[C@H]3C(=O)N[C@@H](CCCN=C(N)N)C(=O)N[C@H](C(=O)N[C@H](C(=O)N[C@@H](CCCN=C(N)N)C(=O)N[C@@H](CCSC)C(=O)N[C@@H](CC(=O)O)C(=O)N[C@H](C(=O)O)C(C)C)[C@@H](C)O)C(C)C)C(C)C)C(C)C)C2=O)[C@H](O)[C@H](C)O1.O=C(O)C(F)(F)F (stereo partly specified) (H-C(X4)VKRGLKLRHVRPRVTRMDV-OH)				79.7	
H-CVKRGLKLRHVRPRVTRMDV-OH	> 1000		> 1000		
COc1cccc2c1C(=O)c1c(O)c3c(c(O)c1C2=O)C[C@@](O)(C(=O)COC(=O)CCCN1C(=O)CC(SCC(N)C(=O)N[C@@H](CO)C(=O)N[C@@H](CCCN=C(N)N)C(=O)N[C@@H](CCCN=C(N)N)C(=O)N[C@@H](C)C(=O)N[C@@H](CCCN=C(N)N)C(=O)N[C@@H](CCCN=C(N)N)C(=O)N[C@@H](CO)C(=O)N2CCC[C@H]2C(=O)N[C@@H](CCCN=C(N)N)C(=O)N[C@@H](Cc2c[nH]cn2)C(=O)N[C@@H](CC(C)C)C(=O)NCC(=O)N[C@@H](CO)C(=O)NCC(=O)N[C@@H](CS)C(=O)O)C1=O)C[C@@H]3O[C@H]1C[C@H](N)[C@H](O)[C@H](C)O1.O=C(O)C(F)(F)F (stereo partly specified) (H-[ξC](X1)SRRARRSPRHLGSGC-OH)	2	9	532	39	
COc1cccc2c1C(=O)c1c(O)c3c(c(O)c1C2=O)C[C@@](O)(C(=O)CO)C[C@@H]3O[C@H]1C[C@H](NC(=O)CCCN2C(=O)CC(SCC(N)C(=O)N[C@@H](CO)C(=O)N[C@@H](CCCN=C(N)N)C(=O)N[C@@H](CCCN=C(N)N)C(=O)N[C@@H](C)C(=O)N[C@@H](CCCN=C(N)N)C(=O)N[C@@H](CCCN=C(N)N)C(=O)N[C@@H](CO)C(=O)N3CCC[C@H]3C(=O)N[C@@H](CCCN=C(N)N)C(=O)N[C@@H](Cc3c[nH]cn3)C(=O)N[C@@H](CC(C)C)C(=O)NCC(=O)N[C@@H](CO)C(=O)NCC(=O)N[C@@H](CS)C(=O)O)C2=O)[C@H](O)[C@H](C)O1 (stereo partly specified) (H-[ξC](X4)SRRARRSPRHLGSGC-OH)	200	114	625		
COc1cccc2c1C(=O)c1c(O)c3c(c(O)c1C2=O)C[C@@](O)(C(=O)CO)C[C@@H]3O[C@H]1C[C@H](N)[C@H](O)[C@H](C)O1.O=C(O)C(F)(F)F [DOXORUBICIN TRIFLUOROACETATE]	3		> 1000		IC50 (HCT-15 [1]): 283 µM; IC50 (MES-SA/Dx5 [2]): 600 µM; IC50 (HCT-116 [3]): 2 µM; IC50 (HCT-15 [4]): 20 µM; IC50 (NCI/ADR-RES [5]): 30 µM; IC50 (MES-SA/Dx5 [6]): 21 µM; Activity (HCT-116 [14]): 49.6%
COc1cccc2c1C(=O)c1c(O)c3c(c(O)c1C2=O)C[C@@](O)(C(=O)CSCC(N)C(=O)N[C@@H](CO)C(=O)N[C@@H](CCCN=C(N)N)C(=O)N[C@@H](CCCN=C(N)N)C(=O)N[C@@H](C)C(=O)N[C@@H](CCCN=C(N)N)C(=O)N[C@@H](CCCN=C(N)N)C(=O)N[C@@H](CO)C(=O)N1CCC[C@H]1C(=O)N[C@@H](CCCN=C(N)N)C(=O)N[C@@H](Cc1c[nH]cn1)C(=O)N[C@@H](CC(C)C)C(=O)NCC(=O)N[C@@H](CO)C(=O)NCC(=O)N[C@@H](CS)C(=O)O)CC3O[C@H]1C[C@H](N)[C@H](O)[C@H](C)O1.O=C(O)C(F)(F)F (stereo partly specified) (H-[ξC](X2)SRRARRSPRHLGSGC-OH)	153	37	121		Activity (HCT-116 [10]): 55.8%

From ChEMBL document CHEMBL1137339, “Improved therapeutic efficacy of doxorubicin through conjugation with a novel peptide drug delivery technology (Vectocell)” (J Med Chem, 2006)
